According to article PMC11480411, “Mucosal sugars delineate pyrazine vs pyrazinone autoinducer signaling in Klebsiella oxytoca” (Nature Communications, 2024):
Where “and” joins values, the source holds several entries; their conditions need not be identical. Equal values may be shown once.

How the values were obtained:
[1] = system: leup operon (leupeptin BGC) promoter in K. oxytoca ATCC 8724; experiment: GFP-based transcriptional reporter for the leup operon; format: cell-based, Klebsiella oxytoca; conditions: carbohydrate screen, M9 + casamino acid + 0.4% indicated sugar, 30 °C, 24 h; for GFP fluorescence, GFP Strain + Media: leup GFP reporter strain; for GFP fluorescence, WT + Media: wildtype K. oxytoca without reporter (background)
Source text: We previously examined a panel of 84 clinical K. oxytoca isolates (including recently renamed Klebsiella michiganensis isolates) for the presence of either the leup operon or npsB, an NRPS of the tilimycin/tilivalline gene cluster. […] While the roles of tilivalline and tilimycin in hemorrhagic colitis are well studied[8],[9], the operon for leupeptin biosynthesis is “silent” in K. oxytoca under typical laboratory culture conditions (i.e., leupeptin production is undetectable). Therefore, our study commenced by exploring growth conditions required to trigger leupeptin biosynthesis in K. oxytoca. To achieve this, we generated a green fluorescent protein (GFP)-based reporter system to monitor leup transcription in K. oxytoca ATCC 8724 (recently renamed as Klebsiella michiganensis (ATCC 8724), Fig. 1a). We utilized λ-red recombineering techniques[38] to replace the first biosynthetic gene (leupA) of the leupeptin BGC with a GFP-spectinomycin resistance cassette. […] Consequently, conditions that elicit transcription of the leupeptin BGC can be monitored by GFP fluorescence intensity.
5 mL of the leupeptin reporter strain was cultured aerobically in 10 g/L of LB (Becton Dickinson), yeast extract, GAM (HiMedia Laboratories), horse liver extract (HiMedia Laboratories), malt extract (VWR), meat extract (HiMedia Laboratories), YPD (Dot Scienticifc), brain heart infusion (Becton Dickinson), porcine mucin (Sigma-Aldrich, M1778), clostridial (Becton Dickinson), TSB (VWR), or casamino acid supplemented (5 g/L, VWR) M9 minimal salts (MP Biomedicals) at 30 °C for 24 h at 250 rpm. Cultures were lysed via sonication, centrifuged, and 150 µL of the supernatants were aliquoted into black well clear bottom 96 well plates. GFP fluorescence measurements were performed on a BioTek Synergy H1 plate reader with an excitation wavelength of 488 nm and an emission wavelength of 525 nm. For the carbohydrate screen, the leupeptin reporter strain was cultured in M9 minimal medium (MPbio) supplemented with casamino acid (5 g/L, VWR) and 0.4% indicated sugar aerobically at 30 °C for 24 h at 250 rpm.

[2] = biological target: T1, histamine receptor H4 (HRH4) (Homo sapiens, UniProt Q9H3N8); experiment: PRESTO-Tango GPCR screen and dose-response; format: cell-based; conditions: replicate wells
T1 construct: expressed in transfected cells; host or cells: HTLA cells (HEK293 line stably expressing β-arrestin-TEV and tTA-Luciferase)
Experimental: (§1) The PRESTO-Tango analyses were performed as previously published. Briefly, HTLA cells, a HEK293 cell line that stably expresses β-arrestin-TEV and tTA-Luciferase (a kind gift from Gilad Barnea, Brown University), were plated in 96-well tissue culture plates (Eppendorf) in DMEM containing 10% FBS and 1% Penicillin/Streptomycin. One day after plating (after reaching approximately 90% confluence), 200 ng per well GPCR-Tango plasmids[37] in 20 μL DMEM were individually mixed with 400 ng polyethylenimine (Polysciences) in an equal volume of DMEM and incubated for 20 min at room temperature before adding the transfection mixture to the HTLA cells. 16-24 h after transfection, medium was replaced with 180 μL fresh DMEM containing 1% Penicillin/Streptomycin and 10 mM HEPES and 20 μL of 3 or 3-Homo to reach a final concentration of 100 μM. Supernatants were aspirated 20 h after stimulation and 50 μl per well of Bright-Glo solution (Promega) diluted 20-fold with PBS containing 20 mM HEPES was added into each well. After 15 min incubation at room temperature, luminescence was quantified using a Spectramax i3x microplate reader (Molecular Devices). Activation fold for each sample was calculated by dividing relative luminescence units (RLU) for each condition by RLUs from PBS control. Dose response curves of each chemical were performed in a similar way with varying the ligand concentration from 10^−4 M to 10^−15 M.

HRH2 = biological target: T2, HRH2 (Homo sapiens, UniProt P25021); experiment: PRESTO-Tango GPCR screen and dose-response; format: cell-based; conditions: replicate wells
T2 construct: expressed in transfected cells; host or cells: HTLA cells (HEK293 line stably expressing β-arrestin-TEV and tTA-Luciferase)
Experimental: as §1

HRH1 = biological target: T3, HRH1 (Homo sapiens, UniProt P35367); experiment: PRESTO-Tango GPCR screen and dose-response; format: cell-based; conditions: replicate wells
T3 construct: expressed in transfected cells; host or cells: HTLA cells (HEK293 line stably expressing β-arrestin-TEV and tTA-Luciferase)
Experimental: as §1

T1 sequence (Q9H3N8 whole entry): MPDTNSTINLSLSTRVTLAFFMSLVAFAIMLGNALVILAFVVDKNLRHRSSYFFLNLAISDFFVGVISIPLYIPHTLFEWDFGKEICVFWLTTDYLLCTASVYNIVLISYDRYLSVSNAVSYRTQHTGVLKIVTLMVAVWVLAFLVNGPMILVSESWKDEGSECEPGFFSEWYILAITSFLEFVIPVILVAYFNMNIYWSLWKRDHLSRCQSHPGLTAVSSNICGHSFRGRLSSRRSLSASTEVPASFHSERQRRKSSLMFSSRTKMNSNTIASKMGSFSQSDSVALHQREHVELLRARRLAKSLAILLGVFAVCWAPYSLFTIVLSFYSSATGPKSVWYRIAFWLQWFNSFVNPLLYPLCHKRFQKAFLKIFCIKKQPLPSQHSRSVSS
T2 sequence (P25021 whole entry): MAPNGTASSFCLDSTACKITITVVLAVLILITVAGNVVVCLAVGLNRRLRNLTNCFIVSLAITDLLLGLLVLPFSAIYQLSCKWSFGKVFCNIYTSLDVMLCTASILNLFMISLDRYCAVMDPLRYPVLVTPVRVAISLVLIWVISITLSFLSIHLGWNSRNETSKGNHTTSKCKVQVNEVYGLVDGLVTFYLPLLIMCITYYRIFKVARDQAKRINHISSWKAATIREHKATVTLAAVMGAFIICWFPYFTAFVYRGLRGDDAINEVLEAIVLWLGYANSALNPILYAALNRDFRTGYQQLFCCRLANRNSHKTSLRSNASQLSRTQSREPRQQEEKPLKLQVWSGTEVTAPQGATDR
T3 sequence (P35367 whole entry): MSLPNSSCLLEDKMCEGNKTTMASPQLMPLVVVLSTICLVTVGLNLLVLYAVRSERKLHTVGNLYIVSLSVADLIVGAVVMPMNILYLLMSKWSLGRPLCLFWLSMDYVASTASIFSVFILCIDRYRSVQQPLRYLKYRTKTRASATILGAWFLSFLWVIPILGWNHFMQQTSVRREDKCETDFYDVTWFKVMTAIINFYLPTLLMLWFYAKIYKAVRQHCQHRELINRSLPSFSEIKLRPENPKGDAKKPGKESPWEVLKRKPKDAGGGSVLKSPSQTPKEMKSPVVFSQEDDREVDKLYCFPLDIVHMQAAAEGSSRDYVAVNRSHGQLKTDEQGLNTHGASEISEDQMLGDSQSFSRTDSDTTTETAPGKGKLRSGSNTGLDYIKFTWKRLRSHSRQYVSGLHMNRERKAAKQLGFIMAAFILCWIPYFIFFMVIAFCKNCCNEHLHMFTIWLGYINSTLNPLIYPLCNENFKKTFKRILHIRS

SMILES: CC(=O)N[C@H]1C(O)O[C@H](CO)[C@H](O)[C@@H]1O (stereo partly drawn) [GalNAc]
- GFP fluorescence, GFP Strain + Media [1]: 9643 RFU
- GFP fluorescence, WT + Media [1]: 8779 RFU

SMILES: N[C@H]1C(O)O[C@H](CO)[C@@H](O)[C@@H]1O (stereo partly drawn) [Glucosamine]
- GFP fluorescence, GFP Strain + Media [1]: 9974 RFU
- GFP fluorescence, WT + Media [1]: 5479 RFU

SMILES: O=C[C@H](O)[C@@H](O)[C@@H](O)[C@H](O)CO [Galactose]
- GFP fluorescence, GFP Strain + Media [1]: 9159 RFU
- GFP fluorescence, WT + Media [1]: 6849 RFU

SMILES: NCCc1c[nH]cn1 [Histamine, histamine, reference compound]
- HRH4 dose-response raw reporter signal (Fig. 5b source data) ([2]; Log(10)Conc (M) -5): 20161 and 21099
- HRH4 dose-response raw reporter signal (Fig. 5b source data) ([2]; Log(10)Conc (M) -6): 15058 and 15677
- HRH4 dose-response raw reporter signal (Fig. 5b source data) ([2]; Log(10)Conc (M) -7): 3788 and 3862
- HRH4 dose-response raw reporter signal (Fig. 5b source data) ([2]; Log(10)Conc (M) -8): 887 and 1023
- HRH4 dose-response raw reporter signal (Fig. 5b source data) ([2]; Log(10)Conc (M) -9): 590 and 625
- HRH4 dose-response raw reporter signal (Fig. 5b source data) ([2]; Log(10)Conc (M) -10): 537 and 513
- HRH4 dose-response raw reporter signal (Fig. 5b source data) ([2]; Log(10)Conc (M) -11): 475
- HRH4 dose-response raw reporter signal (Fig. 5b source data) ([2]; Log(10)Conc (M) -12): 433 and 407
- HRH4 dose-response raw reporter signal (Fig. 5b source data) ([2]; Log(10)Conc (M) -13): 377 and 419
- HRH4 dose-response raw reporter signal (Fig. 5b source data) ([2]; Log(10)Conc (M) -14): 545 and 448
- HRH4 dose-response raw reporter signal (Fig. 5b source data) ([2]; Log(10)Conc (M) -15): 245
- HRH2 dose-response raw reporter signal (Fig. 5b source data) (HRH2; Log(10)Conc (M) -4): 3877 and 3933 and 3726
- HRH2 dose-response raw reporter signal (Fig. 5b source data) (HRH2; Log(10)Conc (M) -5): 699 and 758 and 693
- HRH2 dose-response raw reporter signal (Fig. 5b source data) (HRH2; Log(10)Conc (M) -6): 144 and 156 and 139
- HRH2 dose-response raw reporter signal (Fig. 5b source data) (HRH2; Log(10)Conc (M) -7): 56 and 88 (2×)
- HRH2 dose-response raw reporter signal (Fig. 5b source data) (HRH2; Log(10)Conc (M) -8): 94 and 91 and 50
- HRH2 dose-response raw reporter signal (Fig. 5b source data) (HRH2; Log(10)Conc (M) -9): 62 and 56 and 65
- HRH2 dose-response raw reporter signal (Fig. 5b source data) (HRH2; Log(10)Conc (M) -10): 59 and 68 and 77
- HRH2 dose-response raw reporter signal (Fig. 5b source data) (HRH2; Log(10)Conc (M) -11): 53 and 68 and 38
- HRH2 dose-response raw reporter signal (Fig. 5b source data) (HRH2; Log(10)Conc (M) -12): 50 and 56 and 88
- HRH2 dose-response raw reporter signal (Fig. 5b source data) (HRH2; Log(10)Conc (M) -13): 44 and 77 and 100
- HRH2 dose-response raw reporter signal (Fig. 5b source data) (HRH2; Log(10)Conc (M) -14): 44 and 83 and 77
- HRH2 dose-response raw reporter signal (Fig. 5b source data) (HRH2; Log(10)Conc (M) -15): 32 and 47 and 38
- HRH1 dose-response raw reporter signal (Fig. 5b source data) (HRH1; Log(10)Conc (M) -4): 81577 and 82137
- HRH1 dose-response raw reporter signal (Fig. 5b source data) (HRH1; Log(10)Conc (M) -5): 78216 and 78255
- HRH1 dose-response raw reporter signal (Fig. 5b source data) (HRH1; Log(10)Conc (M) -6): 75259 and 78673
- HRH1 dose-response raw reporter signal (Fig. 5b source data) (HRH1; Log(10)Conc (M) -7): 76949 and 75622
- HRH1 dose-response raw reporter signal (Fig. 5b source data) (HRH1; Log(10)Conc (M) -8): 67606 and 69585
- HRH1 dose-response raw reporter signal (Fig. 5b source data) (HRH1; Log(10)Conc (M) -9): 52047 and 52194
- HRH1 dose-response raw reporter signal (Fig. 5b source data) (HRH1; Log(10)Conc (M) -10): 45399 and 45284
- HRH1 dose-response raw reporter signal (Fig. 5b source data) (HRH1; Log(10)Conc (M) -11): 44193 and 43739
- HRH1 dose-response raw reporter signal (Fig. 5b source data) (HRH1; Log(10)Conc (M) -12): 45001 and 44441
- HRH1 dose-response raw reporter signal (Fig. 5b source data) (HRH1; Log(10)Conc (M) -13): 46307 and 47693
- HRH1 dose-response raw reporter signal (Fig. 5b source data) (HRH1; Log(10)Conc (M) -14): 46469 and 45317
- HRH1 dose-response raw reporter signal (Fig. 5b source data) (HRH1; Log(10)Conc (M) -15): 42643 and 42151

SMILES: OC[C@H]1O[C@@H](O[C@H]2[C@H](O)[C@@H](O)C(O)O[C@@H]2CO)[C@H](O)[C@@H](O)[C@H]1O (mixture of isomers) [Lactose]
- GFP fluorescence, GFP Strain + Media [1]: 5276 RFU
- GFP fluorescence, WT + Media [1]: 4982 RFU

SMILES: CC(=O)N[C@@H]1[C@@H](O)[C@H](O)[C@@H](CO)O[C@H]1O [GlcNAc]
- GFP fluorescence, GFP Strain + Media [1]: 9678 RFU
- GFP fluorescence, WT + Media [1]: 5235 RFU
